Data reported in US20090227619A1, “Harmine derivatives, intermediates used in their preparations, preparation processes and use therefo” (priority 2003, published 2009).
pIC50: −log10 of the molar value. Where two headings read alike, the source gives them in different places.

Columns and labels:
HepG2 = experiment: In vitro cytotoxicity, IC50 by MTT method, HepG2; assay type: cell-based, human; conditions: Homo sapiens; HepG2 cell strain; read-out: IC50 HepG2
How it was run: (§1)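 MTT viability, 48 h exposure: cells 10^5/ml in RPMI1640 + 10% FBS, 37 °C/5% CO2; MTT 4 h, DMSO solubilisation, A490.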

PLA-801 = experiment: In vitro cytotoxicity, IC50 by MTT method, PLA-801; assay type: cell-based; conditions: PLA-801 cell strain; read-out: IC50 PLA-801
How it was run: as §1

Bel-7402 = experiment: In vitro cytotoxicity, IC50 by MTT method, Bel-7402; assay type: cell-based; conditions: Homo sapiens, Bel-7402; Bel7402 cell strain; read-out: IC50 Bel7402
How it was run: as §1

BGC-823 = experiment: In vitro cytotoxicity, IC50 by MTT method, BGC-823; assay type: cell-based; conditions: Homo sapiens, BGC-823; BGC823 cell strain; read-out: IC50 BGC823
How it was run: as §1

Hela = experiment: In vitro cytotoxicity, IC50 by MTT method, Hela; assay type: cell-based; conditions: Homo sapiens; Hela cell strain; read-out: IC50 Hela
How it was run: as §1

Lovo = experiment: In vitro cytotoxicity, IC50 by MTT method, Lovo; assay type: cell-based; conditions: Homo sapiens; Lovo cell strain; read-out: IC50 Lovo
How it was run: as §1

NIH3T3 = experiment: In vitro cytotoxicity, IC50 by MTT method, NIH3T3; assay type: cell-based; conditions: Mus musculus; NIH3T3 cell strain; read-out: IC50 NIH3T3
How it was run: as §1

CT-DNA [1] = experiment: DNA thermal denaturation, determination of ΔTm; assay type: binding; conditions: 20 uM compound, Tm of CT-DNA alone 61° C.
How it was run: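 CT-DNA at 15 ug/ml in PE buffer (1 mM Na2HPO4, 0.1 mM EDTA, pH 7.6), heated at 0.5° C./min from 25 to 95° C. Tm taken as hyperchromic transition mid-point; ΔTm = Tm of drug-DNA complex minus Tm of DNA alone, mean of three runs.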

CT-DNA [2] = experiment: UV absorption spectrum method with CT-DNA; assay type: binding; conditions: CT-DNA 40 ug/ml, compound 20 uM, 37° C. for 2 h, OD at 260 nm
Description: Compounds to be tested (20 uM) were added into the PE buffer solution, and its scan curve was identified by the spectrograph at a wavelength of from 200 to 400 nm. CT-DNA (40 ug/ml) and compounds to be tested (20 uM) were added into the PE buffer solution. The mixture was cultured at 37° C. for 2 h, and its scan curve was identified by the UV spectrograph at a wavelength of from 200 to 400 nm. […] After that, the OD value at 260 nm of the scan curve of the medicaments tested and that of the CT-DNA mixture OD value at 260 nm of the scan curve were calculated and compared to determine the influences of the medicaments tested on the UV absorption spectrum of the DNA molecules.

Kunming mice = conditions: for Death rate: single i.p.
Lewis lung cancer = conditions: Lewis lung cancer; for Body weight of the animals, end, First time / Body weight of the animals, end, Second time: ip × 10qd; for Inhibition rate (%) Lewis cancer: comparison table 43, in vivo;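 for all read-outs here: mice implanted subcutaneously in the axilla with Lewis lung tumor cells, treated starting the following day, killed roughly three weeks after implantation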
S180 sarcoma = conditions: S180 sarcoma; for Body weight of the animals, beginning, First time / Body weight of the animals, end, First time / Inhibition rate, First time / Weight of the tumor X ± SD, First time / Body weight of the animals, beginning, Second time / Body weight of the animals, end, Second time / Inhibition rate, Second time: ip × 10qd; for Inhibition rate (%) S180 sarcomata: comparison table 43, in vivo
in vivo = conditions: both, mouse, ip
[3] = Solubility (physico-chemical data tables); conditions: qualitative; Table 12, 3,9-disubstituted β-carboline derivatives
[4] = 50% male 50% female mice, 240 mg/kg
[5] = 50% male 50% female mice, 300 mg/kg
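Throughout, for Death rate: acute toxicity in Kunming mice grouped by sex, one intraperitoneal dose at five graded levels in Tween-80 plus 0.5% CMC-Na, deaths monitored over two weeks.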
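Throughout, for LD50: acute toxicity in Kunming mice grouped by sex, one intraperitoneal dose at five graded levels in Tween-80 plus 0.5% CMC-Na, deaths monitored over two weeks.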
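Throughout, for MTD: acute toxicity in Kunming mice grouped by sex, one intraperitoneal dose at five graded levels in Tween-80 plus 0.5% CMC-Na, deaths monitored over two weeks.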

CCCCn1c2ccccc2c2cc(C(=O)O)ncc21 [Compound 36, 9-butyl-β-carboline-3-carboxylic acid]
pIC50 (HepG2): 3.77
pIC50 (PLA-801): 4.05
pIC50 (Bel-7402): 4.05
pIC50 (BGC-823): 3.92
pIC50 (Hela): 4.22
pIC50 (Lovo): 5.00
pIC50 (NIH3T3): 4.70
ΔTm (CT-DNA [1]; CT-DNA 15 ug/ml, PE buffer pH 7.6): −1.5 °C
ΔTm (CT-DNA [1]; CT-DNA thermal denaturation): −1.5 °C
Influence on the UV absorption of DNA (CT-DNA [2]): increase the UV absorption of DNA
Death rate (Kunming mice; [4]): 0
Death rate (Kunming mice; [5]): 30
Death rate (Kunming mice; female mice, 240 mg/kg): 0
Death rate (Kunming mice; female mice, 300 mg/kg): 40
Death rate (Kunming mice; male mice, 240 mg/kg): 0
Death rate (Kunming mice; male mice, 300 mg/kg): 20
Body weight of the animals, end, First time (Lewis lung cancer; Dosage 50 (mg/ml)): 25.6 g
Body weight of the animals, end, Second time (Lewis lung cancer; Dosage 50 (mg/ml)): 25.3 g
Body weight of the animals, beginning, First time (Lewis lung cancer; Dosage 50, ip × 10qd): 18.8 g
Inhibition rate, First time (Lewis lung cancer; Dosage 50, ip × 10qd): 31.74%
Weight of the tumor X ± SD, First time (Lewis lung cancer; Dosage 50, ip × 10qd): 2.00 ± 0.28 g
Body weight of the animals, beginning, Second time (Lewis lung cancer; Dosage 50, ip × 10qd): 20.1 g
Inhibition rate, Second time (Lewis lung cancer; Dosage 50, ip × 10qd): 31.69%
Weight of the tumor X ± SD, Second time (Lewis lung cancer; Dosage 50, ip × 10qd): 1.66 ± 0.17 g
Body weight of the animals, end, First time (Lewis lung cancer; Dosage 100 (mg/ml)): 25.2 g
Body weight of the animals, end, Second time (Lewis lung cancer; Dosage 100 (mg/ml)): 25.0 g
Body weight of the animals, beginning, First time (Lewis lung cancer; Dosage 100, ip × 10qd): 19.3 g
Inhibition rate, First time (Lewis lung cancer; Dosage 100, ip × 10qd): 41.98%
Weight of the tumor X ± SD, First time (Lewis lung cancer; Dosage 100, ip × 10qd): 1.70 ± 0.17 g
Body weight of the animals, beginning, Second time (Lewis lung cancer; Dosage 100, ip × 10qd): 20.1 g
Inhibition rate, Second time (Lewis lung cancer; Dosage 100, ip × 10qd): 46.91%
Weight of the tumor X ± SD, Second time (Lewis lung cancer; Dosage 100, ip × 10qd): 1.29 ± 0.13 g
Inhibition rate (%) Lewis cancer (Lewis lung cancer): 46.91%
Body weight of the animals, beginning, First time (S180 sarcoma; Dosage 50 (mg/ml)): 19.1 g
Body weight of the animals, end, First time (S180 sarcoma; Dosage 50 (mg/ml)): 24.9 g
Inhibition rate, First time (S180 sarcoma; Dosage 50 (mg/ml)): 29.96%
Weight of the tumor X ± SD, First time (S180 sarcoma; Dosage 50 (mg/ml)): 1.87 ± 0.16 g
Body weight of the animals, beginning, Second time (S180 sarcoma; Dosage 50 (mg/ml)): 18.3 g
Body weight of the animals, end, Second time (S180 sarcoma; Dosage 50 (mg/ml)): 25.3 g
Inhibition rate, Second time (S180 sarcoma; Dosage 50 (mg/ml)): 31.11%
Weight of the tumor X ± SD, Second time (S180 sarcoma; Dosage 50, ip × 10qd): 1.86 ± 0.28 g
Body weight of the animals, beginning, First time (S180 sarcoma; Dosage 100 (mg/ml)): 19.0 g
Body weight of the animals, end, First time (S180 sarcoma; Dosage 100 (mg/ml)): 24.5 g
Inhibition rate, First time (S180 sarcoma; Dosage 100 (mg/ml)): 43.07%
Weight of the tumor X ± SD, First time (S180 sarcoma; Dosage 100 (mg/ml)): 1.52 ± 0.15 g
Body weight of the animals, beginning, Second time (S180 sarcoma; Dosage 100 (mg/ml)): 18.7 g
Body weight of the animals, end, Second time (S180 sarcoma; Dosage 100 (mg/ml)): 25.5 g
Inhibition rate, Second time (S180 sarcoma; Dosage 100 (mg/ml)): 40.00%
Weight of the tumor X ± SD, Second time (S180 sarcoma; Dosage 100, ip × 10qd): 1.62 ± 0.12 g
Inhibition rate (%) S180 sarcomata (S180 sarcoma): 43.07%
MTD at 2 weeks (in vivo): > 300 mg/kg

O=C(O)c1cc2c3ccccc3n(Cc3ccccc3)c2cn1 [Compound 37, 9-benzyl-β-carboline-3-carboxylic acid]
pIC50 (HepG2): 4.00
pIC50 (PLA-801): 4.00
pIC50 (Bel-7402): 3.96
pIC50 (BGC-823): 4.30
pIC50 (Hela): 4.05
pIC50 (Lovo): 4.40
pIC50 (NIH3T3): 4.30
Influence on the UV absorption of DNA (CT-DNA [2]): increase the UV absorption of DNA
Death rate (Kunming mice; [4]): 100
Death rate (Kunming mice; [5]): 100
Death rate (Kunming mice; female mice, 240 mg/kg): 100
Death rate (Kunming mice; female mice, 300 mg/kg): 100
Death rate (Kunming mice; male mice, 240 mg/kg): 100
Death rate (Kunming mice; male mice, 300 mg/kg): 100
LD50 (Kunming mice; mouse, in vivo, ip): 142 to 189 mg/kg
Body weight of the animals, end, First time (Lewis lung cancer; Dosage 25 (mg/ml)): 24.1 g
Body weight of the animals, end, Second time (Lewis lung cancer; Dosage 25 (mg/ml)): 24.9 g
Body weight of the animals, beginning, First time (Lewis lung cancer; Dosage 25, ip × 10qd): 18.6 g
Inhibition rate, First time (Lewis lung cancer; Dosage 25, ip × 10qd): 27.09%
Weight of the tumor X ± SD, First time (Lewis lung cancer; Dosage 25, ip × 10qd): 1.83 ± 0.17 g
Body weight of the animals, beginning, Second time (Lewis lung cancer; Dosage 25, ip × 10qd): 19.6 g
Inhibition rate, Second time (Lewis lung cancer; Dosage 25, ip × 10qd): 29.24%
Weight of the tumor X ± SD, Second time (Lewis lung cancer; Dosage 25, ip × 10qd): 1.67 ± 0.16 g
Body weight of the animals, end, First time (Lewis lung cancer; Dosage 50 (mg/ml)): 23.9 g
Body weight of the animals, end, Second time (Lewis lung cancer; Dosage 50 (mg/ml)): 24.3 g
Body weight of the animals, beginning, First time (Lewis lung cancer; Dosage 50, ip × 10qd): 18.9 g
Inhibition rate, First time (Lewis lung cancer; Dosage 50, ip × 10qd): 39.04%
Weight of the tumor X ± SD, First time (Lewis lung cancer; Dosage 50, ip × 10qd): 1.53 ± 0.14 g
Body weight of the animals, beginning, Second time (Lewis lung cancer; Dosage 50, ip × 10qd): 19.5 g
Inhibition rate, Second time (Lewis lung cancer; Dosage 50, ip × 10qd): 43.22%
Weight of the tumor X ± SD, Second time (Lewis lung cancer; Dosage 50, ip × 10qd): 1.34 ± 0.14 g
Inhibition rate (%) Lewis cancer (Lewis lung cancer): 43.22%
Body weight of the animals, beginning, First time (S180 sarcoma; Dosage 25 (mg/ml)): 19.6 g
Body weight of the animals, end, First time (S180 sarcoma; Dosage 25 (mg/ml)): 26.9 g
Inhibition rate, First time (S180 sarcoma; Dosage 25 (mg/ml)): 23.86%
Weight of the tumor X ± SD, First time (S180 sarcoma; Dosage 25 (mg/ml)): 2.17 ± 0.18 g
Body weight of the animals, beginning, Second time (S180 sarcoma; Dosage 25 (mg/ml)): 20.4 g
Body weight of the animals, end, Second time (S180 sarcoma; Dosage 25 (mg/ml)): 25.1 g
Inhibition rate, Second time (S180 sarcoma; Dosage 25 (mg/ml)): 24.21%
Weight of the tumor X ± SD, Second time (S180 sarcoma; Dosage 25, ip × 10qd): 2.16 ± 0.27 g
Body weight of the animals, beginning, First time (S180 sarcoma; Dosage 50 (mg/ml)): 19.7 g
Body weight of the animals, end, First time (S180 sarcoma; Dosage 50 (mg/ml)): 26.3 g
Inhibition rate, First time (S180 sarcoma; Dosage 50 (mg/ml)): 34.39%
Weight of the tumor X ± SD, First time (S180 sarcoma; Dosage 50 (mg/ml)): 1.87 ± 0.13 g
Body weight of the animals, beginning, Second time (S180 sarcoma; Dosage 50 (mg/ml)): 20.6 g
Body weight of the animals, end, Second time (S180 sarcoma; Dosage 50 (mg/ml)): 24.7 g
Inhibition rate, Second time (S180 sarcoma; Dosage 50 (mg/ml)): 32.98%
Weight of the tumor X ± SD, Second time (S180 sarcoma; Dosage 50, ip × 10qd): 1.91 ± 0.23 g
Inhibition rate (%) S180 sarcomata (S180 sarcoma): 34.39%
LD50 at 2 weeks (in vivo; Kunming): 163 mg/kg
Solubility [3]: soluble in DMSO
